Molecules are shown by their SMILES. Activity calls are given as the source filed them. No rule for the calls is given here.

This assay has as its target RanGTP-importin-beta complex (human Ran / KPNB1). The assay can be described thus: disruptors of RanGTP/KPNB1 binding – biochemical, FRET, CFP/YFP, cell-free homogeneous, confirmation (AID 2823). The following applies: CFP-Ran/YFP-importin-beta FRET ratio.
One may read the IC50 as the point on the concentration scale where inhibition reaches its midpoint. For the compound `COCCNc1cc(C)nc2cc(-c3ccc(C)cc3)nn12`, the IC50 is 5.2 µM. In the case of `Cc1ccc(N=Cc2cc3c(cc2[N+](=O)[O-])OCO3)cc1[N+](=O)[O-]`, the IC50 is > 50 µM (inactive). In the case of `CCN(CC(=O)Nc1cccc(S(=O)(=O)N2CCCCC2)c1)Cc1ccccc1` it was > 50 µM (inactive). Take `CCC(=O)NCCNc1nc2cc(C)c(C)cc2cc1C#N`: the IC50 was 16 µM.

For `O=C(Nc1cccc(-c2nc3ccccc3s2)c1)c1cccs1`, the IC50 is > 50 µM (inactive).

Take `N#Cc1c(N)[nH]c(=S)c(C#N)c1-c1ccccc1`: the IC50 is > 50 µM (inactive). In the case of `CCN(CC)S(=O)(=O)c1ccc(NC(=O)c2cccc3c2C(=O)N(CCOC)C3)cc1` it was > 50 µM (inactive).

`O=C(O)c1cccc(Nc2c3ccccc3nc3ccccc23)c1`: the IC50 is > 50 µM (inactive).

Take `Cc1ccc2nc(N3CCN(Cc4nnnn4Cc4ccccc4)CC3)c(C#N)cc2c1`: the IC50 was 23 µM. In the case of `Cc1cccc(Oc2nc(-c3cccc([N+](=O)[O-])c3)nc3ccccc23)c1C` it was > 50 µM (inactive); in that of `CCN1C(=O)C2(C(C#N)=C(N)Oc3n[nH]c(C(C)C)c32)c2ccccc21` (stereo not given), > 50 µM (inactive). Next, `CCOC(=O)c1c(NC(=O)Cc2ccccc2)sc2c1CCN(CC)C2`: > 50 µM (inactive); `COc1ccc2c(c1)O/C(=C\c1ccco1)C2=O`: 18.3 µM.

Turning to `O=C(c1ccco1)N1CCN(c2cc(=O)n(-c3ccc(Cl)cc3)c(=O)[nH]2)CC1`, the IC50 was > 50 µM (inactive).

For the compound `CC(C)OC(=O)c1c(N)n(CCCN2CCOCC2)c2nc3ccccc3nc12`, the IC50 was 25.8 µM.

Take `O=[N+]([O-])c1ccc(Nc2c3ccccc3nc3ccccc23)cc1`: the IC50 was > 50 µM (inactive). For `CNS(=O)(=O)c1cc(OC)c(OC)cc1CC(=O)OC`, the IC50 is > 50 µM (inactive). In the case of `CC1CC1c1ccc(/C=C(\C#N)C(=O)Nc2ccc(Cl)cc2)o1` (stereo not given), the IC50 was > 50 µM (inactive). On to `CCc1cc(=O)oc2c(CN3CCN(C)CC3)c(O)c(Cl)cc12`, for which the IC50 is 27.1 µM. Next, `N#C/C(=C/c1cn(CC(=O)O)c2ccccc12)C(=O)NCc1ccccc1`: > 50 µM (inactive); `O=C(Nc1ccnc(-c2ccncc2)n1)c1ccc(Cl)cc1`: > 50 µM (inactive). As to `CC(C)(C)n1cnc2cc(NCc3ccc(Br)cc3)ccc21`, the IC50 was > 50 µM (inactive). As to `COC(=O)[C@@H]1[C@H]2C[C@H]3c4[nH]c5ccccc5c4CCN3C[C@@H]2CC[C@@H]1O`, the IC50 was > 50 µM (inactive). In the case of `CCOC(=O)c1c(/N=C/c2ccc(C)cc2O)sc2c1CCN(C)C2` it was > 50 µM (inactive). As for `CC(=O)N(c1ccc(Cl)cc1)c1c[nH]c2ccccc12`, the IC50 is > 50 µM (inactive).

Turning to `COc1ccc(C2c3c(ncn(Cc4ccco4)c3=N)Oc3ccc4ccccc4c32)cc1` (stereo not given), the IC50 is > 50 µM (inactive).

Consider `O=C(O)C1C2CCC(C2)C1C(=O)NCCc1ccc(F)cc1` (stereo not given), for which the IC50 is > 50 µM (inactive). In the case of `Cc1ccc(-c2nnn(CC(=O)N(c3ccccc3)C(C(=O)NCC3CCCO3)c3ccc(Cl)cc3)n2)cc1` (stereo not given) it was > 50 µM (inactive). Next, `CN(CCOc1ccccc1)CC(=O)Nc1ccc(Cl)cc1[N+](=O)[O-]`: > 50 µM (inactive); `CC(=O)c1ccc(-c2cccs2)s1`: 34.7 µM; `CN1CCN(c2ccc(S(=O)(=O)N3CCCCC3)cc2NC(=O)Cc2ccc(Cl)cc2)CC1`: > 50 µM (inactive). In the case of `C/C(=N\OCC(=O)OCC(=O)NC(=O)c1ccccc1)c1ccc2c(c1)OCO2` it was > 50 µM (inactive). `Cc1ccc(S(=O)(=O)N2CCCN(c3nc4cc(C)ccc4cc3C#N)CC2)cc1`: the concentration for half-maximal inhibition (IC50) is 29.8 µM. On to `Cc1ccc(S(=O)(=O)CC(=O)N(CCCN(C)C)c2nc3ccc(C)cc3s2)cc1`, for which the IC50 is > 50 µM (inactive). With `COC(=O)Cc1c(C)c2cc(Cl)c(OC(=O)c3ccco3)cc2oc1=O`, the IC50 was 14.2 µM.

As to `CC(OC(=O)CNC(=O)c1cccc(F)c1)C(=O)NC1CCCCC1C` (stereo not given), the IC50 was > 50 µM (inactive). In the case of `NC(=O)N/N=C/c1ccccc1OC(=O)c1cc2ccccc2oc1=O` it was > 50 µM (inactive); in that of `CN(C)c1ccc(/C=C(\NC(=O)c2ccccc2)C(=O)NCc2ccncc2)cc1`, > 50 µM (inactive). For the compound `COC(=O)Nc1ccc(NC(C)=O)cc1`, the IC50 was > 50 µM (inactive).

As to `N#CC1=C(N)OC2=C(CCc3ccccc32)C1c1ccccc1` (stereo not given), the IC50 is > 50 µM (inactive). Next, `CCOC(=O)CSc1nnc(CSc2nc3sc4c(c3c(=O)[nH]2)CCCC4)n1-c1ccccc1`: > 50 µM (inactive); `COC(=O)c1cc2c(ccn2C)n1C`: > 50 µM (inactive). `CC(=O)c1cccc(OCC(=O)N(C)CC(=O)Nc2ccc(F)cc2)c1`: the IC50 was > 50 µM (inactive). Regarding `COc1cc2c(cc1NC(=S)Nc1cccc3ccccc13)oc1ccccc12`, the IC50 was > 50 µM (inactive).

In the case of `COCC(C)OC(=O)c1c(N)n(CC(C)C)c2nc3ccccc3nc12` (stereo not given), the IC50 was 28.5 µM.

As for `Cc1ccc(-c2cc3nc(-c4ccccc4)cc(N4CCC5(CC4)OCCO5)n3n2)cc1`, the IC50 was 44 µM. In the case of `CC(C)(C)Nc1c2ccccc2nc2ccccc12` it was > 50 µM (inactive).

Turning to `COc1ccc(C(=O)Cc2cnn(-c3ccccc3)c2)c(O)c1`, the IC50 was > 50 µM (inactive). For `CN(C)S(=O)(=O)c1cccc(NC(=O)CNC2CCCCC2)c1`, the IC50 is > 50 µM (inactive). Next, `CC1C=CCC2C(=O)N(c3ccccc3OC(=O)c3cccs3)C(=O)C12` (stereo not given): > 50 µM (inactive). Regarding `CCN(CC)Cc1c(O)c(Cl)cc2c3c(c(=O)oc12)CCCC3`, the half-inhibitory concentration (IC50) was 20.6 µM. With `CC(C)Sc1nc(N2CCOCC2)c2c(c1C#N)CC(C)(C)N(C)C2`, the IC50 was 46.2 µM. In the case of `CCn1c(=O)cc(N2CCCCC2)[nH]c1=O` it was > 50 µM (inactive); in that of `Fc1ccccc1N1CCN(c2nc3ccccc3n3nnnc23)CC1`, 37.8 µM; in that of `CCOC(=O)c1c(C)oc2cc(Br)c(OCC(N)=O)cc12`, > 50 µM (inactive). On to `Cn1c(=O)oc2cc(S(=O)(=O)NCCC(=O)N3CC=C(c4ccccc4)CC3)ccc21`, for which the IC50 was > 50 µM (inactive). In the case of `C=CCn1c(=O)c(C(=O)Nc2ccc(C)cc2)c(O)c2ccccc21` it was > 50 µM (inactive); in that of `COc1ccc(OC)c(S(=O)(=O)n2ccnc2C)c1`, > 50 µM (inactive).

On to `CN=C(Nc1cc(C)nn1CCC#N)c1ccccc1`, for which the IC50 was > 50 µM (inactive). Next, `COC(=O)c1ccc(NC(=O)C(=O)N2CCN(C(=S)Nc3ccccc3OC)CC2)cc1`: > 50 µM (inactive).

For the compound `Cc1cc2c(c(=O)n1Cc1cccnc1)C(Cc1ccccc1)C(C#N)=C(N)O2` (stereo not given), the IC50 was > 50 µM (inactive). Turning to `CCCN1CC(O)=C(C#N)C1=O`, the IC50 is > 50 µM (inactive). Next, `C/C(N)=C(/C#N)C(=O)COc1ncnc2ccccc12`: > 50 µM (inactive); `CC(C)(C)c1ccc(S(=O)(=O)NCC(=O)N2CCN(C(=O)c3ccco3)CC2)cc1`: > 50 µM (inactive); `Cc1cc(CNC(=O)COc2ccc(F)cc2)c2ccccc2n1`: > 50 µM (inactive). For the compound `CCN1C(=O)/C(=C2/Sc3ccccc3N2CCCS(=O)(=O)O)SC1=S`, the half-inhibitory concentration (IC50) is 15.2 µM.

As for `COC(=O)C1=CN(Cc2ccc(OC)c(OC)c2)C=C(C(=O)OC)C1c1cccc(O)c1`, the IC50 is 14.3 µM. Turning to `CC1CCCCN1C(=O)Cn1c(=O)oc2cc(S(=O)(=O)N3CCCC3)ccc21` (stereo not given), the IC50 is > 50 µM (inactive).

In the case of `COc1cc(/C=C(\C#N)C(=O)Nc2cccc3ncccc23)cc(OC)c1OC`, the IC50 was > 50 µM (inactive).

Turning to `CSc1nc(-c2ccc(N(C)C)cc2)c(C#N)c(=O)n1C`, the IC50 was > 50 µM (inactive). Next, `CCS(=O)(=O)c1nc(S(=O)(=O)c2ccc(C)cc2)c(NCc2ccccn2)s1`: > 50 µM (inactive); `CC1(C)CC(=O)C=C(Nc2ccccc2F)C1`: > 50 µM (inactive); `O=c1cc(N2CCC3(CC2)OCCO3)[nH]c(=O)n1-c1ccc(Br)cc1`: > 50 µM (inactive). In the case of `CCOc1ccc(N=Cc2c(O)n(-c3cccc(C)n3)c(=O)c3ccccc23)cc1` it was > 26 µM (inactive); in that of `O=c1[nH]c2c(s1)C(c1ccco1)C1C3CCC(C3)C1S2` (stereo not given), > 50 µM (inactive). For `CCCOC(=O)CSC1=C(C#N)C(c2ccccc2OC)C(C#N)C(=O)N1` (stereo not given), the IC50 is > 50 µM (inactive). Next, `COC(=O)c1ccc2nc(NC(=O)C(C)(C)C)sc2c1`: > 50 µM (inactive); `CCN1CCN(Cc2c(O)c(Cl)cc3c(C)cc(=O)oc23)CC1`: 33.4 µM; `O=c1[nH]c(Nc2ccccc2Cl)cc2ccccc12`: > 50 µM (inactive). As to `COc1ccc(Cn2c(O)c(C=Nc3ccc(OC)cc3)c3ccccc3c2=O)cc1`, the IC50 is > 50 µM (inactive). Turning to `Nc1nc(CSc2nc3ccccc3s2)nc(N2CCCCC2)n1`, the IC50 was > 50 µM (inactive).

In the case of `COc1ccccc1CNC(=O)COC(=O)Cc1ccc(Cl)cc1`, the IC50 was > 50 µM (inactive). On to `Cc1c(NC2=CC(=O)CCC2)c(=O)n(-c2ccccc2)n1C`, for which the IC50 is > 50 µM (inactive). Regarding `CCOC(=O)c1ccc(NC(=O)CSc2nc(C)nc3c2c(=O)n(C)c(=O)n3C)cc1`, the IC50 was > 50 µM (inactive).

On to `Cc1cc(Nc2ccccc2)nn1C(=O)c1ccccc1`, for which the IC50 is > 50 µM (inactive). Take `O=C(CSc1nnc(-c2ccc(F)cc2)o1)Nc1ccc(S(=O)(=O)N2CCCC2)cc1`: the IC50 is > 50 µM (inactive). As for `Cn1c(SCc2ccccc2F)nnc1-c1ccccn1`, the IC50 is > 50 µM (inactive).

Take `COc1ccc(NC(=O)c2ccc3snnc3c2)cc1`: the IC50 was > 50 µM (inactive). Take `c1cncc(Nc2c3ccccc3nc3ccccc23)c1`: the IC50 is > 50 µM (inactive).

With `COCCOC(=O)C1=C(C)NC(=O)NC1c1cccc2ccccc12` (stereo not given), the IC50 is > 50 µM (inactive).
